# Columns and labels:
# Type in all cases: physicochemical
# [1] = Behaviour of crown ether in decane extraction system (Table 1 remarks); details: crown ether 0.1 mole/l in Decane
# Description: (§1) Study was carried out for determining the distribution ratios of radionuclides, for example, strontium or cesium to be extracted by the extractants according to the invention containing various crown ethers as a complexing agent: bis(tert-butylbenzo)-18-crown-6 (subsequently referred to as DTBDB18C6), di-isooctylbenzo-18-crown-6 (subsequently referred to as DIODB18C6), bis(tert-butylcyclohexane-18-crown-6 (subsequently referred to as DTBDCH18C6), di-isooxyldicyclohexane-18-crown-6 (subsequently referred to as DIODCH18C6), bicyclohexane-18-crown-6 (subsequently referred to as DCH18C6) or dibenzo-21-crown-7 (subsequently referred to as DB21C7), in an organic solvent according to the invention: polyfluorinated telomeric alcohol 1,1,7-trihydrododecafluoroheptanol-1 (subsequently referred to as fluoroheptanol n3).
# (§2) For comparison, the distribution ratios of strontium and cesium were determined using extractants containing similar crown ethers in another organic solvent (decane).
# (§3) Taken for the tests were experimental aqueous nitrate solutions containing strontium and cesium in a concentration of 1 g/l with a content of nitric acid of about 3.0 mol/l.
# [2] = Distribution ratio of cesium extracted in organic solutions of crown ethers (Table 1); details: crown ether 0.1 mole/l in Fluoroheptanol n3; Sr and Cs 1 g/l, nitric acid about 3.0 mol/l
# Description: as §1, §2, §3
# [3] = Influence of nitric acid concentration on cesium extraction from solution No.1; details: for Distribution ratios of cesium: solution No.1
# Source text: The dependence of extraction of cesium by organic solutions DTBDB18C6 in fluoropentanol n3 and DB21C7 in Fluoroheptanol n3 at a concentration of nitric acid in a starting solution was studied. Solution No.1 whose composition is listed in Table 2 was used as a starting solution.
# [4] = Concentration of crown ether in extracted products, dynamic cesium extraction (7.2)
# Source text: The scheme of the process and the conditions of extraction of cesium by the method according to the invention are similar to those described above in 7.1, but the organic phase for extraction of cesium includes solutions DB21C7 in a concentration of about 0.05 mol/l in an organic solvent containing synthanol in an amount of 5% by volume and Fluoroheptanol n3 in an amount of about 95% by volume.
# During the operation of the experimental facility radiometric monitoring devices were used to control the concentration of strontium in the refined products, re-extracts and reclaims, as well as the concentration of the crown ethers in the extracted products. The technological characteristics of the process and solubility of the crown ether (averaged values of several experiments) are given in Table 16.
# [5] = Distribution ratio of strontium extracted in organic solutions of crown ethers (Table 1); details: crown ether 0.1 mole/l in Fluoroheptanol n3; Sr and Cs 1 g/l, nitric acid about 3.0 mol/l
# Description: as §1, §2, §3
SMILES,Remarks [1],Distribution ratio Cesium [2],Concentration of nitric acid at the maximum of cesium extraction [3],"Distribution ratios of cesium ([3]; nitric acid 0 mol/l, Fluoroheptanol n3)",Distribution ratios of cesium ([3]; nitric acid 0.1 mol/l),Distribution ratios of cesium ([3]; nitric acid 0.5 mol/l),Distribution ratios of cesium ([3]; nitric acid 1.0 mol/l),Distribution ratios of cesium ([3]; nitric acid 2.0 mol/l),Distribution ratios of cesium ([3]; nitric acid 3.0 mol/l),Distribution ratios of cesium ([3]; nitric acid 4.0 mol/l),Distribution ratios of cesium ([3]; nitric acid 5.0 mol/l),Distribution ratios of cesium ([3]; nitric acid 6.0 mol/l),Distribution ratios of cesium ([3]; nitric acid 7.0 mol/l),Distribution ratios of cesium ([3]; nitric acid 8.0 mol/l),Concentration of the crown ether in the extracted products ([4]; Re-extract),Concentration of the crown ether in the extracted products ([4]; Reclaim),Concentration of the crown ether in the extracted products ([4]; Refined product),Distribution ratio Strontium [5]
"c1ccc2c(c1)OCCOCCOCCOc1ccccc1OCCOCCO2 [DB21C7, dibenzo-21-crown-7]",Is insoluble,10.7,~3.0 mol/l,0.25,1.0,3.2,7.8,10.2,12.2,11.4,10.0,8.0,6.2,5.0,53 Mg/l,18 Mg/l,27 Mg/l,–
"C1CCC2OCCOCCOC3CCCCC3OCCOCCOC2C1 (stereo not drawn) [DCH18C6, bicyclohexane-18-crown-6]",–,–,–,–,–,–,–,–,–,–,–,–,–,–,–,–,–,1.6
